{"source": "paper PMC12400753", "about": "(Respiratory Research, 2025)", "key": {"[1]": {"biological_target": "T1, LPAR1 (Mus musculus, UniProt P61793)", "T1 construct": "from tissue; host or cells: lung of female C57BL6/N mice, dosed in vivo", "T1 sequence (P61793 whole entry)": "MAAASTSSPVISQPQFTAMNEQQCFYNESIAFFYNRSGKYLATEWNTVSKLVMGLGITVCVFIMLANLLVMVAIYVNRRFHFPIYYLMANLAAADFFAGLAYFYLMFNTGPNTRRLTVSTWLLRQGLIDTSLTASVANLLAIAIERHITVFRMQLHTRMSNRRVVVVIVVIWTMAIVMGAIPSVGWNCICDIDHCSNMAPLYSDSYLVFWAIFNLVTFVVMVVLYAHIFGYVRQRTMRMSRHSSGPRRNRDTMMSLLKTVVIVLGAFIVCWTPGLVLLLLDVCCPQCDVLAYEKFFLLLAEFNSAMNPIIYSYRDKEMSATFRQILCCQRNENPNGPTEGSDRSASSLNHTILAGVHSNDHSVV", "assay": "In vivo lung receptor occupancy with [3H]-PIPE-497", "conditions": "for EC50: read-out: lung receptor occupancy EC50 (plasma concentration)", "protocol": "[^3H]-PIPE-497 was diluted to 9.8 µCi/mL in saline and administered via IV injection to the lateral tail vein at a dose volume of 5 mL/kg. Five minutes following radioligand administration, mice were euthanized by decapitation, trunk blood collected into K3EDTA tubes and stored on wet ice, each lung rapidly dissected, weighed and placed into a 5 mL polypropylene tube. Tissues were diluted with a 10x volume of ice-cold binding buffer (50 mM HEPES, 100 mM NaCl2, 2 mM EDTA). Lungs were then homogenized (25,000 rpm, 7 s). 300 µL of homogenate was filtered over Whatman GF/B filters (GE Life Sciences, Marlborough, MA) which had been pre-wetted with 0.5% polyethyleneimine prior to loading onto the Hoefer vacuum manifold. Filters were washed once by applying 3 mL ice-cold wash buffer (50 mM Tris, 154 mM NaCl, 0.05% Tween 20) to the manifold for a total of 2 washes. […] Washed filters were removed from the manifold and air dried. Following completion of filtration of all samples, uncapped scintillation vials were placed into an oven (~ 40–50 °C) for ~ 30 min to ensure complete drying. Five (5) mL Ultima Gold F scintillation fluid was added to each tube. Tubes were capped, gently agitated, and dark equilibrated for 30 min then read on a Beckman LS6500 liquid scintillation counter for tritium disntegrations per minute measurements. After all samples were collected, dissected, and filtered, the previously collected blood in K3EDTA tubes was centrifuged (1450 x g, 10 min, 4 °C) to separate plasma."}, "[2]": {"system": "bleomycin-induced lung fibrosis", "assay": "Systemic (subcutaneous) bleomycin mouse model", "type": "in vivo", "conditions": "3 mg/kg oral once a day, therapeutic", "protocol": "Mice were injected subcutaneously with bleomycin (0.1 units/day), on a schedule of 5 days on/2 days off to induce fibrosis. […] Dosing was maintained until study end, at which point lung tissues were collected. The right lobe was snap frozen and processed for collagen analysis for hydroxyproline; the left lobe was sectioned and stained with Masson’s trichrome stain for histological assessment of tissue collagen. This study was conducted by Inotiv (West Lafayette, IN). Forty-four female 9 week old C57Bl/6 mice (Jackson Labs) were provided standard chow (Envigo, Cat #: 8940), housed under standard conditions, and allowed to acclimate for > 3 days prior to enrollment. Prior to start, mice were weighed and placed into balanced enrollment groups. Four days prior to start, mice were anesthetized, dorsal fur shaved and removed with depilatory agent, and two circles (~ 1.5 cm diameter) heat-branded on their dorsal abdomen. Fur was removed as needed for the balance of the study to ensure consistent location of s.c. injections. Beginning on day 0 and through day 26, mice were anesthetized with isoflurane and administered 0.9% NaCl or bleomycin injections (100 µl/injection, s.c.) into each of the circles (2 injections/mouse/d) on a 5 day on/2 day off paradigm. Mice were administered 0.9% NaCl (vehicle) or bleomycin (0.1 U) with bleomycin doses split evenly between the two circles (i.e., 0.05 U/circle). […] Weight measures and health observations were made daily. On day 27, mice were dosed to enable trough blood/plasma collection on day 28, which was collected via retro-orbital approach under isoflurane anesthesia. Following blood collection, mice were administered vehicle or compound on a timetable as appropriate to enable a peak blood collection 2 h postdose. At the time of sacrifice, mice were anesthetized with pentobarbital, a tracheotomy performed and interfaced with a positive pressure ventilator providing 100% O2. The mouse’s chest was then opened, and a needle interfaced with an infusion pump introduced to the right ventricle. […] The lungs were then harvested, immediately immersed in ice-cold 0.9% NaCl, gross dissected and subjected to morphological analyses. Tissue samples will be processed for biochemical and/or histological analyses as described below. Masson’s Trichrome Blue stained slides were subjected to histological analyses using color segmentation analysis for lung fibrosis. Frozen lung samples underwent hydroxyproline analysis as described below. Lung tissue processing – following exsanguination and flushing of the pulmonary circulation to clear blood, the lungs were removed, placed in ice-cold 0.9% NaCl and processed on wet ice. Extraneous tissue was removed and whole lung weight recorded. […]"}, "[3]": {"conditions": "once per day for 4 days (steady state), 3 h after last dose"}}, "note": "Where two headings read alike, the source gives them in different places.", "data": [{"smiles": "COc1ccc(NC(=O)N(c2ccccc2C(C)C)C2CCC(C(=O)O)CC2)c(OC(F)F)n1", "note": "(stereo not drawn) [PIPE-791]", "values": [{"measurement": "increase in potency when dosed 3 versus 24 h prior to radioligand", "setting": "[1]; in vivo receptor occupancy", "value": 20, "unit": "fold"}, {"measurement": "lung receptor occupancy ED50", "setting": "[1]; [3]", "value": 0.1, "unit": "mg/kg"}, {"measurement": "EC50", "setting": "[1]; [3]", "value": 18, "unit": "nM"}, {"measurement": "EC90", "setting": "[1]; once per day for 4 days (steady state), read-out: lung receptor occupancy EC90 (total plasma concentration)", "value": 50, "unit": "nM"}, {"measurement": "lung receptor occupancy ED50", "setting": "[1]; single oral dose 3 h prior to radioligand", "value": 0.5, "unit": "mg/kg"}, {"measurement": "lung receptor occupancy ED50", "setting": "[1]; single oral dose 24 h prior to radioligand", "value": 0.09, "unit": "mg/kg"}, {"measurement": "EC50", "setting": "[1]; single oral dose, 3 h", "value": 79, "unit": "nM"}, {"measurement": "radiotracer displacement (LPAR1 receptor occupancy) in lung", "setting": "[1]; single oral dose, 3 h post dose", "value": "Significant radiotracer displacement (LPAR1 receptor occupancy) was observed at 3 mg/kg"}, {"measurement": "EC50", "setting": "[1]; single oral dose, 24 h", "value": 4, "unit": "nM"}, {"measurement": "radiotracer displacement (LPAR1 receptor occupancy) in lung", "setting": "[1]; single oral dose, 24 h post dose", "value": "significant occupancy was observed at both 0.3 and 3 mg/kg"}, {"measurement": "reduction in lung hydroxyproline compared to bleomycin/vehicle", "setting": "[2]", "value": 40, "unit": "%"}, {"measurement": "tissue collagen fraction (TCF), trichrome", "setting": "[2]; p = 0.0017", "value": "nearly full reduction"}]}]}
